Assay results reported in ChEMBL document CHEMBL1201862, “PubChem BioAssay data set” (2004).
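96-well plates; 48 h exposure; 5 concentrations. Endpoints by linear interpolation between flanking doses. Not reached: highest tested concentration assigned. At the GI50, growth is halved.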 Active and inactive are the calls of the source. No stated cut-off is given here; in the data, active = GI50 up to about 1.1 µM and inactive = higher.

Tests used:
Test in all cases: NCI anticancer screen, dose series, 48 h
SK-MEL-5 = tested on: SK-MEL-5
OVCAR-4 = tested on: OVCAR-4
786-0 = tested on: 786-0
HCC 2998 = tested on: HCC 2998
A498 = tested on: A498
EKVX = tested on: EKVX
HCT-15 = tested on: HCT-15
HL-60 = tested on: HL-60
SK-MEL-28 = tested on: SK-MEL-28
UACC-62 = tested on: UACC-62
SN12C = tested on: SN12C
HOP-92 = tested on: HOP-92
T47D = tested on: T47D
COLO 205 = tested on: COLO 205
SF-539 = tested on: SF-539
M14 = tested on: M14
ACHN = tested on: ACHN
PC-3 = tested on: PC-3
SR = tested on: SR

SMILES | GI50 (SK-MEL-5) | GI50 (OVCAR-4) | GI50 (786-0) | GI50 (HCC 2998) | GI50 (A498) | GI50 (EKVX) | GI50 (HCT-15) | GI50 (HL-60) | GI50 (SK-MEL-28) | GI50 (UACC-62) | GI50 (SN12C) | GI50 (HOP-92) | GI50 (T47D) | GI50 (COLO 205) | GI50 (SF-539) | GI50 (M14) | GI50 (ACHN) | GI50 (PC-3) | GI50 (SR)
CSc1ccsc1-c1sc(-c2cc(SC)c(-c3sc(-c4cc(SC)c(-c5sccc5SC)s4)cc3SC)s2)cc1SC | > 100 µM (inactive) | > 100 µM (inactive) | 15.3 µM (inactive) | > 100 µM (inactive) | > 100 µM (inactive) | > 100 µM (inactive) | > 100 µM | 0.356 µM (active) | > 100 µM (inactive) | 42.2 µM (inactive) | 42.3 µM (inactive) | 62.4 µM (inactive) | 28.2 µM (inactive) | 33.4 µM (inactive) | > 100 µM (inactive) | > 100 µM (inactive) | 32.9 µM (inactive) | 76.4 µM (inactive) | –
CSc1c(C#N)c(S)n(-c2ccc(Cl)cc2)c(=O)c1C#N | 83.9 µM (inactive) | 46.1 µM (inactive) | > 100 µM (inactive) | > 100 µM (inactive) | > 100 µM (inactive) | > 100 µM (inactive) | 74.1 µM | 52.5 µM (inactive) | > 100 µM (inactive) | 51.2 µM (inactive) | > 100 µM (inactive) | – | 47.5 µM (inactive) | > 100 µM (inactive) | > 100 µM (inactive) | > 100 µM (inactive) | – | 76.9 µM (inactive) | 33 µM (inactive)
O=C(CSc1nc2ccc(I)cc2c(=O)n1Cc1ccccc1)NN1C(=O)CSC1c1ccccc1 (centres undefined) | 18.5 µM (inactive) | 25.8 µM (inactive) | 38.3 µM (inactive) | 21.5 µM (inactive) | – | 29.2 µM (inactive) | 14.1 µM | 4.68 µM (inactive) | 30.2 µM (inactive) | 19.3 µM (inactive) | 23 µM (inactive) | 19.4 µM (inactive) | 28.1 µM (inactive) | 15.3 µM (inactive) | 27.9 µM (inactive) | 29.5 µM (inactive) | 18.2 µM (inactive) | 32.2 µM (inactive) | 26.5 µM (inactive)
CCNCC(=O)Nc1ccc2c(c1)C(=O)c1ccc(NC(=O)CNCC)cc1C2=O | 36.4 µM (inactive) | 0.514 µM (active) | 2.14 µM (inactive) | 1.7 µM (inactive) | 2.62 µM (inactive) | 4.93 µM (inactive) | 1.93 µM | 3.01 µM (inactive) | 5.61 µM (inactive) | 3.75 µM (inactive) | 1.87 µM (inactive) | 3.38 µM (inactive) | 3.86 µM (inactive) | 1.71 µM (inactive) | 4.97 µM (inactive) | 3.5 µM (inactive) | 1.92 µM (inactive) | 2.76 µM (inactive) | –
OCCCCn1cc(Cn2ncc3c(NCc4ccccc4)ncnc32)nn1 | > 100 µM (inactive) | > 100 µM (inactive) | > 100 µM (inactive) | > 100 µM (inactive) | > 100 µM (inactive) | > 100 µM (inactive) | > 100 µM | – | > 100 µM (inactive) | > 100 µM (inactive) | > 100 µM (inactive) | > 100 µM (inactive) | 66.1 µM (inactive) | > 100 µM (inactive) | > 100 µM (inactive) | > 100 µM (inactive) | > 100 µM (inactive) | > 100 µM (inactive) | 15.9 µM (inactive)
COc1ccc2c(c1)CC[C@@H]1C2CC[C@]2(C)C(=C=CP(=O)(O)O)CCC12 (some centres undefined) | > 100 µM (inactive) | > 100 µM (inactive) | > 100 µM (inactive) | > 100 µM (inactive) | > 100 µM (inactive) | > 100 µM (inactive) | > 100 µM | – | > 100 µM (inactive) | > 100 µM (inactive) | > 100 µM (inactive) | > 100 µM (inactive) | > 100 µM (inactive) | > 100 µM (inactive) | > 100 µM (inactive) | > 100 µM (inactive) | > 100 µM (inactive) | > 100 µM (inactive) | 99.5 µM (inactive)
CNc1ccc(OC)cc1S(=O)(=O)c1ccccc1[N+](=O)[O-] | 51.3 µM (inactive) | > 100 µM (inactive) | > 100 µM (inactive) | > 100 µM (inactive) | 47.4 µM (inactive) | 47.1 µM (inactive) | > 100 µM | > 100 µM (inactive) | > 100 µM (inactive) | > 100 µM (inactive) | > 100 µM (inactive) | – | 49.8 µM (inactive) | > 100 µM (inactive) | > 100 µM (inactive) | > 100 µM (inactive) | > 100 µM (inactive) | 52.7 µM (inactive) | > 100 µM (inactive)
O=C(O)C(Cc1cc(I)c(O)c(I)c1)C1CCCCC1 (centres undefined) | 22.4 µM (inactive) | 59.6 µM (inactive) | 51.9 µM (inactive) | 27.2 µM (inactive) | 21.3 µM (inactive) | 31.9 µM (inactive) | 31.7 µM | – | 59.7 µM (inactive) | 33.1 µM (inactive) | 32.2 µM (inactive) | 33.5 µM (inactive) | 29.9 µM (inactive) | – | – | 45.5 µM (inactive) | 30.3 µM (inactive) | 18.3 µM (inactive) | 33.1 µM (inactive)
COc1cc2c(cc1OCCCCCCCCCCN1C(=O)c3cccc4cccc(c34)C1=O)N=C[C@@H]1CCCN1C2=O | 10.9 µM (inactive) | 1.31 µM (inactive) | 9.06 µM (inactive) | 11.1 µM (inactive) | – | 2.11 µM (inactive) | 4.8 µM | 4.27 µM (inactive) | 12.3 µM (inactive) | 12.2 µM (inactive) | 4.42 µM (inactive) | – | 4.41 µM (inactive) | 3.52 µM (inactive) | 1.55 µM (inactive) | 13.7 µM (inactive) | 10 µM (inactive) | 3.13 µM (inactive) | 0.902 µM (active)
CN(/N=C/C=N/N(C)C1=NCCCCN1)C1=NCCCCN1 | > 100 µM (inactive) | > 100 µM (inactive) | > 100 µM (inactive) | > 100 µM (inactive) | – | > 100 µM (inactive) | > 100 µM | – | > 100 µM (inactive) | > 100 µM (inactive) | > 100 µM (inactive) | – | > 100 µM (inactive) | > 100 µM (inactive) | > 100 µM (inactive) | > 100 µM (inactive) | > 100 µM (inactive) | > 100 µM (inactive) | > 100 µM (inactive)
COc1ccc(/C=C/C(=O)/C=C/c2ccc(OC)cc2OC)c(OC)c1 | 3.77 µM (inactive) | 12.3 µM (inactive) | 5.81 µM (inactive) | 3.23 µM (inactive) | – | 9.08 µM (inactive) | 3.75 µM | 3.13 µM (inactive) | 4.83 µM (inactive) | 5.6 µM (inactive) | 18.6 µM (inactive) | 18.6 µM (inactive) | 4.47 µM (inactive) | 5.61 µM (inactive) | 15.8 µM (inactive) | 7.14 µM (inactive) | 6.61 µM (inactive) | 12.2 µM (inactive) | 3.64 µM (inactive)
S=c1c2cc(I)ccc2nc(S)n1Cc1ccccc1 | 3.17 µM (inactive) | 3.62 µM (inactive) | 5.96 µM (inactive) | – | 3.33 µM (inactive) | 3.71 µM (inactive) | 3.78 µM | 2.33 µM (inactive) | 3.79 µM (inactive) | – | 3.16 µM (inactive) | 2.69 µM (inactive) | 1.5 µM (inactive) | 10.7 µM (inactive) | 10.3 µM (inactive) | 3.9 µM (inactive) | 3.06 µM (inactive) | 3.32 µM (inactive) | 3.64 µM (inactive)
O=c1c2ccccc2nc2sc(/N=C/C=C/c3ccccc3)nn12 | > 100 µM (inactive) | > 100 µM (inactive) | > 100 µM (inactive) | > 100 µM (inactive) | > 100 µM (inactive) | > 100 µM (inactive) | > 100 µM | – | > 100 µM (inactive) | > 100 µM (inactive) | > 100 µM (inactive) | > 100 µM (inactive) | > 100 µM (inactive) | > 100 µM (inactive) | > 100 µM (inactive) | > 100 µM (inactive) | > 100 µM (inactive) | > 100 µM (inactive) | > 100 µM (inactive)
Cc1nn(-c2ccccc2)c2c1C(c1cc3ccccc3nc1Cl)NC(=O)N2 (centres undefined) | 17 µM (inactive) | 34.1 µM (inactive) | 16.7 µM (inactive) | – | 21.5 µM (inactive) | 25.9 µM (inactive) | 19.8 µM | 5.81 µM (inactive) | – | 19 µM (inactive) | 24.4 µM (inactive) | 10.8 µM (inactive) | 59.2 µM (inactive) | 19.5 µM (inactive) | 19.9 µM (inactive) | 19.6 µM (inactive) | 17.7 µM (inactive) | 19.8 µM (inactive) | 2.19 µM (inactive)
Cc1ncc(COP(=O)(O)O)c(/C=C2\SC(=S)NC2=O)c1O | > 100 µM (inactive) | > 100 µM (inactive) | > 100 µM (inactive) | > 100 µM (inactive) | > 100 µM (inactive) | > 100 µM (inactive) | > 100 µM | – | > 100 µM (inactive) | > 100 µM (inactive) | > 100 µM (inactive) | > 74.5 µM (inactive) | > 100 µM (inactive) | > 100 µM (inactive) | > 100 µM (inactive) | > 100 µM (inactive) | > 100 µM (inactive) | > 100 µM (inactive) | > 100 µM (inactive)
S=C(NN=C1NCCCCN1)Nc1ccccc1 | 48.8 µM (inactive) | – | 39 µM (inactive) | > 100 µM (inactive) | > 100 µM (inactive) | 66.4 µM (inactive) | 37.4 µM | 14.6 µM (inactive) | 35.5 µM (inactive) | > 100 µM (inactive) | > 100 µM (inactive) | – | > 100 µM (inactive) | 6.68 µM (inactive) | > 100 µM (inactive) | 31.7 µM (inactive) | 28.9 µM (inactive) | 45.7 µM (inactive) | 13.1 µM (inactive)
